{
  "source": "patent US20230355599A1",
  "about": "“BIOMARKERS FOR CBL, AND COMPOSITIONS AND METHODS FOR THEIR USE” (NURIX THERAPEUTICS, INC., priority 2022, published 2023)",
  "system": "phosphorylated ZAP70",
  "experiment": "Phosphorylated ZAP70 in circulating CD8+ T cells after oral dosing of cynomolgus monkeys (flow cytometry, ex vivo anti-CD3/CD28 stimulation)",
  "method": "To assess these proximal biomarkers of Cbl-b inhibition on CD8^+ T cells, pharmacodynamic analysis was performed in conjunction with a pharmacokinetic study conducted at Charles River Laboratories. Circulating blood was obtained from cynomolgus monkeys treated with 0.3, 1, 3 or 10 mg/kg of Compound 23 after a single dose and after 3 doses. The response to Cbl-b inhibition on proximal biomarkers (pHS1, pPLCγ2, and pZAP70) was measured in CD8^+ T cells using flow cytometry. This technique is highly quantitative and can measure multiple phosphorylation markers in different cell populations within the same sample.\nCompound 23 was formulated in vehicle (0.2% Tween 80 in DI water+1 eq HCL) and aliquoted into individual (not serially diluted) dosing solutions of 0.3, 1, 3 and 10 mg/mL by stirring for 5-10 min, vortexing, and sonicating again as necessary to produce an even suspension that was stirred constantly at 4° C. to achieve and maintain a homogenous suspension. To prepare vehicle, 0.2% Tween 80 in deionized (DI) water, water was measured into a beaker with continuous stirring. Tween 80 was added sequentially, and stirring continued until the solution dissolved; the solution was stored at 2-8° C.\nFor pharmacodynamic analysis, whole blood was obtained from cynomolgus monkeys and used for flow cytometry assays to evaluate phosphorylated biomarkers, pHS1, pPLCγ2, and pZAP70, in circulating CD8^+ T cells.\nOn the day of dosing, blood samples were collected via femoral venipuncture in accordance with test facility standard operating procedures. 1 mL/tube of whole blood was collected pre-dose (time 0) and at 0.5, 1, 2, 4, 6, and 24 hours post-dose and added into 2 types of TruCulture tubes (Myriad) for pharmacodynamic analysis. One tube contained media alone and is denoted as “Null”, and the second tube contained 2 μg/mL anti-CD3 and anti-CD28, which were prepared at Nurix prior to the study using cynomolgus specific anti-CD3 (BD Biosciences; SP34-2) and anti-CD28 (Bio X cell; CD28.2) and denoted as “CD3/CD28”. Tubes were shipped by overnight courier on cold pack the day of collection and analyzed for phosphorylated biomarkers of Cbl-b inhibition by flow cytometry.\nFollowing PD collection, upon receipt of TruCulture tubes, each tube was inverted 5-6 times to ensure a mixed suspension of blood. 30 μg of goat anti-mouse IgG (H+L) antibody (Invitrogen) was added to cross-link the stimulation antibodies and induce synchronized cellular stimulation. Cells were stimulated for 60 minutes alongside non-stimulated controls for each time point.\nAll buffers (Phosflow Lyse/Fix Buffer 5×, Phosflow Perm Buffer I; BD Biosciences) were prepared according to the manufacturer's instructions. After 60 minutes of goat anti-mouse IgG (H+L) antibody stimulation, one volume of blood was mixed with 20 volumes of pre-warmed BD Phosflow Lyse/Fix Buffer (1×) by repeated pipetting (8-10 times), then incubated in a 37° C. water bath for 10 min. Cells were washed and centrifuged at 500×g for 5 min (2×) with PBS. Following centrifugation, cell pellets were resuspended in cold BD Phosflow Perm Buffer I (BD) and incubated at 4° C. for 20 min. […]",
  "data": [
    {"smiles": "C[C@H]1CCCN(Cc2cc3c(c(C(F)(F)F)c2)CN(c2cccc([C@]4(c5nncn5C)C[C@@H](C)C4)c2)C3=O)C1", "note": "[Compound 23]", "values": [
      {"measurement": "phosphorylated ZAP70 in comparison to baseline", "setting": "multiple doses of 10 mg/kg, 3 days of daily oral dosing", "result": "significant increases"},
      {"measurement": "time of peak increase of phosphorylated ZAP70", "setting": "multiple doses of 10 mg/kg, 4 hours post dose", "result": 76, "unit": "h"},
      {"measurement": "time of maximal signal, phosphorylated ZAP70", "setting": "single dose oral 10 mg/kg", "result": 2, "unit": "hours post dose"},
      {"measurement": "phosphorylated ZAP70 sustained after 24 hours", "setting": "single dose oral 10 mg/kg, after 24 hours", "result": "significant increase"},
      {"measurement": "phosphorylated ZAP70 in comparison to baseline", "setting": "single dose oral 10 mg/kg, circulating CD8+ T cells, anti-CD3/CD28 stimulated", "result": "significant increases"}
    ]}
  ]
}
